# Measurements from paper PMC4037324 (Drug metabolism letters, 2012).
# Legend:
# [1] = target: T1, cytochrome P450 2D6 (CYP2D6) (Homo sapiens, UniProt P10635); test: UV-vis spectral binding titration
# Target sequence in this assay (P10635 whole entry): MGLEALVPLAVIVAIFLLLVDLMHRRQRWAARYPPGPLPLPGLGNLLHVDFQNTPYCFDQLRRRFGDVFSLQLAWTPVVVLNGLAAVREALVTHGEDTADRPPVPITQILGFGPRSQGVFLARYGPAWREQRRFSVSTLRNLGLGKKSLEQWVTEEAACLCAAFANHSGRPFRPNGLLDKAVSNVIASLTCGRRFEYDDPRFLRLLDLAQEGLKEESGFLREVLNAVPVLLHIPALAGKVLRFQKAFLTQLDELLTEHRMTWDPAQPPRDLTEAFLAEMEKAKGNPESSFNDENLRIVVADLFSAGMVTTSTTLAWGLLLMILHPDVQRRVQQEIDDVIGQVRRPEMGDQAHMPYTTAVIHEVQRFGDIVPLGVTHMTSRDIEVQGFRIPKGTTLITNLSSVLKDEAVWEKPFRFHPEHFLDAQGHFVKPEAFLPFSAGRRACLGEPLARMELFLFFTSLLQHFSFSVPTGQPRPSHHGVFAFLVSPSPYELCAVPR
# [2] = target: T1, cytochrome P450 2D6 (CYP2D6); test: NADPH-dependent inactivation of bufuralol […]'-hydroxylation in CYP2D6 Supersomes; assay type: cell-based
# Target sequence in this assay (P16435 2-677): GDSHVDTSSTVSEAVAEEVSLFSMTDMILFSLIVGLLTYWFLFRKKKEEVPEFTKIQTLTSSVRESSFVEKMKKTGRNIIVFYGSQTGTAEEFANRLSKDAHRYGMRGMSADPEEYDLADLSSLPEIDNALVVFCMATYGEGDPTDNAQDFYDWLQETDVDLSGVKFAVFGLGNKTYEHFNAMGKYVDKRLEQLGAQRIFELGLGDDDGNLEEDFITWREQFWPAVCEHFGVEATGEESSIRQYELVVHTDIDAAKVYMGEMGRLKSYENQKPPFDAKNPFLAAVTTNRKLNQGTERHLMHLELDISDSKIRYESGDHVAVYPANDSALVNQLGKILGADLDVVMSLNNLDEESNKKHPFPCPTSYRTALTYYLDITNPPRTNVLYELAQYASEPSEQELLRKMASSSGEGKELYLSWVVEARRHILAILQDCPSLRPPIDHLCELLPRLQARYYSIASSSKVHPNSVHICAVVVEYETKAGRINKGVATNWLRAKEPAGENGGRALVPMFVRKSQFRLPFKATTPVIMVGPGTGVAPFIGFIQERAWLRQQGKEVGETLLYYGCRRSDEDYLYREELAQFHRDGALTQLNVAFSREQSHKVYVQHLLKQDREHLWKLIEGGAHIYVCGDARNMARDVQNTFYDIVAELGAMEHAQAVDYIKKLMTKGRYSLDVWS
# Target sequence in this assay (P10635 whole entry): as the sequence (P10635 whole entry) above
SMILES,Kd [1],partition ratio [2]
CCc1nc(C)c(CN2CCN(c3cc(C(F)(F)F)ccn3)CC2)[nH]1 [EMTPP],29.8 ± 3.04 µM,
CNC(C)Cc1ccc2c(c1)OCO2 (centres unmarked) [MDMA],,91
